# Reference: patent US20070027175A1, “Antineoplastic activities of ellipticine and its derivatives” (priority 2005, published 2007)
# Like-named read-outs stand apart in the source and are kept apart here.
# Assays:
# [1] = tested on: U266 myeloma cell line; set-up: cell viability (CellTiter-Glo luminescent assay): dose or concentration left out as unconfirmed; settings: for cell viability (CellTiter-Glo luminescent assay): U266
# Experimental: The dosage of each derivative was set at 2, 0.2 and 0.02 mM. A cell culture medium control and 0.5% DMSO control was maintained in each experiment. The cell viability was tested each day over a period of five days using the CellTiter-Glo luminescent cell viability assay kit from Promega Co.
# U266 cell line was one of 12 myeloma cell lines used in screening of anti-myeloma agents. In FIG. 10A, cells were treated with 14 ellipticine derivatives (0.5 mM) obtained from the DTP; control cells were untreated. Ellipticine derivatives are coded with NSC identifiers. For 5 days, cell viability was measured every 24 hours using CellTiter-Glo Luminescent Assay. […] In FIG. 10B, U266 cells, along with six other myeloma cell lines, were co-cultured in direct contact with human fetal bone mesenchymal cells and treated with EPED3 (0.5 mM and 2 mM) or Velcade (0.5 mM); control cells were untreated. Cell proliferation was assessed by MTT assay every 24 hours for 5 days. […] Error bars indicate standard deviation.
# Cell Titer-Glo luminescent cell viability assay kit from Promega Co (Madison, Wis.) was used to determine cell growth inhibition by the various compounds tested. The kit determines cell viability by quantifying the amount of ATP present in the cell culture medium. Presence of ATP signals the presence of metabolically active cells (3). The intensity of luminescence was measured by a computerized luminometer (Promega, Co. Madison, Wis.). Each well was read five times within 30 minutes of adding Cell Titer-Glo reagent mixture.
# Cells were contacted with the antineoplastic agents in ninety six well culture plates. The concentration of each neoplastic agent was maintained a constant. A cell culture medium control and 0.5% DMSO control were maintained in each set of experiments. The cell viability was tested every day using the CellTiter-Glo luminescent cell viability kit from Promega Co. (Madison, Wis.) for a period of five days.
# [2] = tested on: RPMI 8226 cells; assay: Drug resistance and cytotoxicity MTT assay, RPMI 8226; type: cell-based, human; settings: 96 hours
# Experimental: FIGS. 13A-13B show dose response of RPMI 8226 and 8226/Dox1V myeloma cells to EPED3 (FIG. 13A) or Dox (FIG. 13B). Cells were incubated for 96 hours with drug concentrations as indicated and analyzed by MTT assays; linear regression analysis was used to determine the IC50 for each drug (EPED3, FIG. 13A; Dox, FIG. 13B) and each cell line (RPMI8226, squares; 8226/Dox1V, circles). Data are presented as the mean of four independent experiments.
# The 8226/Dox1V and its parental line, RPMI 8226, cells were plated in 96-well plates at 10,000 cells/well and incubated with serial dilutions of EPED3 or Dox, as previously described (Landowski et al., 1999). After 96 hours incubation at 37° C., MTT was added to each well at a final concentration of 20 μg/ml and incubated an additional 4 hours. Plates were centrifuged and the media replaced with 0.1 ml DMSO to solublize the formazan complex. Optical density was measured at 540 nm using a Bio-Tek microplate spectrophotometer. IC50 values were calculated by linear regression analysis (Origins® Software Technologies, Inc.) of the log-linear plot for percent survival versus log drug concentration.
# In drug resistance studies, the efficacy of EPED3 with 8226/Dox1V cells and the parental line, RPMI 8226 cells was investigated. Both cell lines were treated with either EPED3 or Dox, and the MTT assays were used to assess cell growth. […]
# [3] = tested on: myeloma cell lines (JJN3, L363, OCI-MY5, and U266); assay: MTT comparison with clinical anti-myeloma agents, four cell lines; type: cell-based, human; settings: 24 and 48 hours
# Experimental: Myeloma cells were suspended in fresh medium at […] and seeded into 96-well plates in 50-μl aliquots (10,000 cells/well). After treating cells in each well with the appropriate compound (50-μl aliquots of 2× stock solution) and medium control, the methylthiazolyldiphenyl-tetrazolium bromide (MTT) assay kit (Promega, Madison, Wis.) was used to determine cell proliferation, according to manufacturer's instructions. Briefly, dye solution was added to each well (15 μl/well) and incubated for 4 hours at 37° C. and 5% CO2; 100 μl of the solubilization solution/stop mix was then added. The plates were read at 570 nm in a plate reader, and the A570 nm values were corrected by A650 nm. All experiments were conducted in triplicate.
# In vitro comparison of EPED3 to ellipticine and four anti-myeloma agents commonly used in clinical treatment regimens was carried out with four myeloma cell lines (JJN3, L363, OCI-MY5, and U266). EPED3, ellipticine, Dox, dexamethasome, VP-16-213, and Velcade were applied in a two-fold dilution series ranging from 0.1 to 6.4 μM. Cell proliferation was assessed using MTT assays 24 and 48 hours after initiating treatments.
# [4] = tested on: myeloma cell lines engrafted in SCID mice; type: in vivo; settings: 25 and 50 mg/kg/day; Alzet osmotic pumps; 28 days; contemplated
# Text: The present invention also examines novel therapeutic approaches for myeloma using experimental animal models. The anti-myeloma efficacy of 9-(Dimethylaminoethoxy)-ellipticine is examined using a panel of myeloma cell lines engrafted in severe combined immunodeficient (SCID) mice. The 3 cell lines are infected with a lentivirus-containing luciferase. Luciferase-expressing myeloma cells can be traced in live animals using the Xenogen IVIS 200 luminescence imaging system. Six to 8 weeks old SCID mice are subcutaneously injected with 10^7 myeloma cells. Tumor growth in live animals is monitored by measuring circulating level of monoclonal human immunoglobulins (hIg) in mice sera using ELISA (Yaccoby et al., 1998; Yang et al., 2002) and through imaging of tumor cells luminescence intensity. The tumor growth is detected within one week by ELISA and within 1-3 weeks by imaging.
# Upon establishment of myeloma growth as determined by both methods, mice are randomly divided into 3 groups; one control and 2 treated with different doses of 9-(Dimethylaminoethoxy)-ellipticine (8 mice/group for each cell line). Mice are implanted with Alzet osmotic pumps delivering 0.25 μl of drug solution per hour for 28 days. The daily doses are 25 and 50 mg/kg/day. Control animals have pumps loaded with buffer (PBS) only. At the experiments' end, mice are subjected to imaging analysis, bled and sacrificed. […]
smiles,measurement,setting,value
"Cc1c2ccncc2c(C)c2c1[nH]c1ccc(OCCN(C)C)cc12 [NSC 338258, ellipticine, 9-dimethyl amino-ethoxy-]",cytotoxic activity on U266 cells,[1],drastic cytotoxic activity
same,cell viability (CellTiter-Glo luminescent assay),"[1]; 0.02, Day 1","26,346"
same,cell viability (CellTiter-Glo luminescent assay),"[1]; 0.02, Day 2","37,946"
same,cell viability (CellTiter-Glo luminescent assay),"[1]; 0.02, Day 3","43,097"
same,cell viability (CellTiter-Glo luminescent assay),"[1]; 0.02, Day 4","74,106"
same,cell viability (CellTiter-Glo luminescent assay),"[1]; 0.02, Day 5","86,287"
same,cell viability (CellTiter-Glo luminescent assay),"[1]; 0.2, Day 1","5,906"
same,cell viability (CellTiter-Glo luminescent assay),"[1]; 0.2, Day 2","1,414"
same,cell viability (CellTiter-Glo luminescent assay),"[1]; 0.2, Day 3",515
same,cell viability (CellTiter-Glo luminescent assay),"[1]; 0.2, Day 4",291
same,cell viability (CellTiter-Glo luminescent assay),"[1]; 0.2, Day 5",101
same,cell viability (CellTiter-Glo luminescent assay),"[1]; 2, Day 1","2,559"
same,cell viability (CellTiter-Glo luminescent assay),"[1]; 2, Day 2",691
same,cell viability (CellTiter-Glo luminescent assay),"[1]; 2, Day 3",172
same,cell viability (CellTiter-Glo luminescent assay),"[1]; 2, Day 4",183
same,cell viability (CellTiter-Glo luminescent assay),"[1]; 2, Day 5",104
same,IC50,[2],150 nM
same,concentration at which cell viability is inhibited as effectively as Velcade,[3],0.4 µM
same,inhibition of myeloma cell growth in vivo,[4],effectively inhibits myeloma cell growth in vivo
